Measured values reported in US7759345B2, “Antitumoral derivatives of ET-743” (priority 2001, dated 2010).

Experiments:
[1] = tested on: Kidney
Excerpt: (§3) Toxicity was asssessed by the methods reported in Toxicology in Vitro, 15 (2001) 571-577, J. Luber Narod et al.: “Evaluation of the use of in vitro methodolodies as tools for screening new compounds for potential in vivo toxicity”.

[2] = tested on: MEL-28; assay: Inhibition of cell growth by counting cells, MEL-28; type: cell-based, human; settings: Homo sapiens, SK-MEL-28, 72 h; three days of incubation; read-out: IC50 (molar) MEL-28
How it was run: (§1)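 Cells were seeded at 1×10^4 per well in EMEM with 5% FCS containing test sample and incubated 3 days at 37 °C, 5% CO2, in duplicate. Cells were then trypsinized and Coulter-counted, and growth was expressed relative to drug-free controls. IC50 (50% growth inhibition) was taken from dose-response curves.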

[3] = tested on: Skeletal
Excerpt: as §3

[4] = tested on: Heart
Excerpt: as §3

[5] = tested on: Liver
Excerpt: as §3

[6] = tested on: A-549; assay: Inhibition of cell growth by counting cells, A-549; type: cell-based, human; settings: Homo sapiens, A549, 72 h; three days of incubation; read-out: IC50 (molar) A-549
How it was run: as §1

[7] = tested on: P-388; assay: Inhibition of cell growth by counting cells, P-388; type: cell-based, mouse; settings: Mus musculus, P388, 72 h; three days of incubation; read-out: IC50 (molar) P-388
How it was run: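 Mouse P-388 lymphoid neoplasm suspension cells seeded at 1×10^4 cells/well in EMEM 5% FCS containing graded sample concentrations, in duplicate alongside drug-free growth controls. Cells counted by Coulter counter; % growth vs untreated gives dose-response curves, IC50 = concentration producing 50% growth inhibition.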

[8] = tested on: HT-29; assay: Inhibition of cell growth by counting cells, HT-29; type: cell-based, human; settings: Homo sapiens, HT-29, 72 h; three days of incubation; read-out: IC50 (molar) HT-29
How it was run: as §1

[9] = tested on: Myelo
Excerpt: as §3

[10] = tested on: DU-145; assay: Inhibition of cell growth by counting cells, DU-145; type: cell-based, human; settings: Homo sapiens, DU-145, 72 h; three days of incubation; read-out: IC50 (molar) DU-145
How it was run: as §1

[11] = tested on: K-562; assay: Inhibition of cells growth by colorimetric assay (SRB), K-562; type: cell-based; settings: K-562, SRB, 48 hours exposure
How it was run: (§2)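 Human cancer cells (5×10^3/well) attached 18 h in RPMI 1640 10% FBS, then exposed 48 h at 37°C to compounds from 10 to 10^−8 μg/ml in DMSO/EtOH/PBS. TCA-fixed, SRB-stained, OD read at 490 nm; GI, TGI and LC derived from triplicate wells.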

[12] = tested on: IGROV-1; assay: Inhibition of cells growth by colorimetric assay (SRB), IGROV-1; type: cell-based; settings: IGROV, SRB, 48 hours exposure
How it was run: as §2

[13] = tested on: LNCaP; assay: Inhibition of cells growth by colorimetric assay (SRB), LNCaP; type: cell-based; settings: LNCAP, SRB, 48 hours exposure
How it was run: as §2

[14] = tested on: SK-MEL-28; assay: Inhibition of cells growth by colorimetric assay (SRB), SK-MEL-28; type: cell-based; settings: MEL-28, SRB, 48 hours exposure
How it was run: as §2

[15] = tested on: SK-OV-3; assay: Inhibition of cells growth by colorimetric assay (SRB), SK-OV-3; type: cell-based; settings: SRB, 48 hours exposure
How it was run: as §2

[16] = tested on: PANC-1; assay: Inhibition of cells growth by colorimetric assay (SRB), PANC-1; type: cell-based; settings: SRB, 48 hours exposure
How it was run: as §2

[17] = tested on: LoVo; assay: Inhibition of cells growth by colorimetric assay (SRB), LoVo; type: cell-based; settings: LOVO, SRB, 48 hours exposure
How it was run: as §2

[18] = tested on: SK-BR-3; assay: Inhibition of cells growth by colorimetric assay (SRB), SK-BR-3; type: cell-based; settings: SK-BR3, SRB, 48 hours exposure
How it was run: as §2

[19] = tested on: HMEC1; assay: Inhibition of cells growth by colorimetric assay (SRB), HMEC1; type: cell-based; settings: SRB, 48 hours exposure
How it was run: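 Compound in DMSO/EtOH/PBS vehicle was applied at 10 to 10^−8 μg/ml to attached cells (5×10^3/well, 18 h) for 48 h. Cells were then fixed with cold TCA and stained with 0.4% SRB in 1% acetic acid.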

[20] = tested on: DU-145; assay: Inhibition of cells growth by colorimetric assay (SRB), DU-145; type: cell-based; settings: SRB, 48 hours exposure
How it was run: as §2

[21] = tested on: A-549; assay: Inhibition of cells growth by colorimetric assay (SRB), A-549; type: cell-based; settings: A-549, SRB, 48 hours exposure
How it was run: as §2

[22] = tested on: HT-29; assay: Inhibition of cells growth by colorimetric assay (SRB), HT-29; type: cell-based; settings: SRB, 48 hours exposure
How it was run: as §2

[23] = tested on: IGROV-ET; assay: Inhibition of cells growth by colorimetric assay (SRB), IGROV-ET; type: cell-based; settings: IGROV-ET, SRB, 48 hours exposure
How it was run: as §2

[24] = tested on: LoVo-Dox; assay: Inhibition of cells growth by colorimetric assay (SRB), LoVo-Dox; type: cell-based; settings: SRB, 48 hours exposure
How it was run: as §2

With `COc1cc2c(cc1OC(=O)OCc1ccccc1)CCN[C@]21CS[C@@H]2c3c(OC(C)=O)c(C)c4c(c3[C@H](COC1=O)N1C2[C@H]2c3c(cc(C)c(OC)c3O)C[C@@H]([C@@H]1O)N2C)OCO4` (stereo partly shown) [Compound 65] the “Toxicity Data Kidney” value [1] was 3.15E-09, the IC50 [2] was 0.112 nM and the “Toxicity Data Skeletal” value [3] was 3.77E-09. For the same molecule, the “Toxicity Data Heart” value [4] was 9.00E-09, the “Toxicity Data Liver” value [5] was 5.30E-09 and the IC50 [6] was 0.112 nM. The IC50 [7] was 0.112 nM, the IC50 [8] was 0.112 nM and the “Toxicity Data Myelo” value [9] was 1.70E-08. For the same molecule, the IC50 [10] was 0.112 nM.
With `C=CCOc1cc2c(cc1OC)[C@@]1(CS[C@@H]3c4c(OC(C)=O)c(C)c5c(c4[C@H](COC1=O)N1C3[C@H]3c4c(cc(C)c(OC)c4O)C[C@@H]([C@@H]1O)N3C)OCO5)NCC2` (stereo partly shown) [Compound 70] the “Toxicity Data Kidney” value [1] was 1.07E-07, the IC50 [2] was 0.125 nM and the “Toxicity Data Skeletal” value [3] was 3.67E-08. For the same molecule, the “Toxicity Data Heart” value [4] was 2.20E-07, the “Toxicity Data Liver” value [5] was 3.16E-08 and the IC50 [6] was 0.125 nM. The IC50 [7] was 0.125 nM, the IC50 [8] was 0.125 nM and the “Toxicity Data Myelo” value [9] was 6.61E-08. It also gave an IC50 [10] of 0.125 nM.
For `COc1cc2c(cc1OC(=O)Cc1cc(=O)oc3cc(N(C)C)ccc13)CCN[C@]21CS[C@@H]2c3c(OC(C)=O)c(C)c4c(c3[C@H](COC1=O)N1C2[C@H]2c3c(cc(C)c(OC)c3OC(=O)Cc3cc(=O)oc5cc(N(C)C)ccc35)C[C@@H]([C@@H]1O)N2C)OCO4` (stereo partly shown) [Compound 77], the “K-562 TGI” value [11] was 7.77E-10, the GI50 ([11]; read-out: K-562 GI50) was 0.277 nM and the LC50 (50% cell killing) ([11]; read-out: K-562 LC50) was 37.9 nM. For the same molecule, the “Toxicity Data Kidney” value [1] was 3.22E-09, the “IGROV TGI” value [12] was 1.53E-09 and the GI50 ([12]; read-out: IGROV GI50) was 0.454 nM. The CC50 ([12]; read-out: IGROV LC50) was 8.82 nM, the “Toxicity Data Skeletal” value [3] was 2.20E-09 and the “LNCAP TGI” value [13] was 6.12E-10. For the same molecule, the GI50 ([13]; read-out: LNCAP GI50) was 0.328 nM, the CC50 ([13]; read-out: LNCAP LC50) was 1.58 nM and the “Toxicity Data Heart” value [4] was 1.64E-08. The “Toxicity Data Liver” value [5] was 9.53E-09, the “MEL-28 TGI” value [14] was 5.06E-10 and the GI50 ([14]; read-out: MEL-28 GI50) was 0.266 nM. For the same molecule, the CC50 ([14]; read-out: MEL-28 LC50) was 0.962 nM, the GI50 ([15]; Homo sapiens, SK-OV-3, 48 h, SK-OV3, read-out: SK-OV3 GI50) was 2.55 nM and the LC50 ([15]; Homo sapiens, SK-OV-3, 48 h, read-out: SK-OV3 LC50, SK-OV3) was 10.1 µM. The “SK-OV3 TGI” value ([15]; SK-OV3) was 7.76E-09, the GI50 ([16]; Homo sapiens, PANC-1, 48 h, PANC-1, read-out: PANC-1 GI50) was 3.27 nM and the LC50 (concentration for 50% net cell kill) ([16]; Homo sapiens, PANC-1, 48 h, read-out: PANC-1 LC50, PANC-1) was 6.3 µM. For the same molecule, the “PANC-1 TGI” value ([16]; PANC-1) was 9.14E-09, the “LOVO TGI” value [17] was 3.96E-09 and the GI50 ([17]; read-out: LOVO GI50) was 1.91 nM. The LC50 (concentration for 50% cell killing) ([17]; read-out: LOVO LC50) was 8.21 nM, the “SK-BR3 TGI” value [18] was 2.04E-09 and the GI50 ([18]; read-out: SK-BR3 GI50) was 0.475 nM. The CC50 ([18]; read-out: SK-BR3 LC50) was 8.12 nM, the “HMEC-1 TGI” value ([19]; HMEC-1) was 5.28E-08 and the GI50 ([19]; HMEC-1, read-out: HMEC-1 GI50) was 5.28 nM. The LC50 ([19]; Homo sapiens, HMEC-1, 48 h, read-out: HMEC-1 LC50, HMEC-1) was 10.1 µM, the “DU-145 TGI” value ([20]; DU-145) was 1.45E-09 and the GI50 ([20]; DU-145, read-out: DU-145 GI50) was 0.488 nM. For the same molecule, the CC50 ([20]; Homo sapiens, DU-145, 48 h, read-out: DU-145 LC50, DU-145) was 10.1 µM, the “TGI A-549” value [21] was 3.64E-09 and the GI50 ([21]; read-out: GI50 A-549) was 2.11 nM. For the same molecule, the LC50 (concentration for 50% cell killing) ([21]; read-out: A-549 LC50) was 6.29 nM, the “Toxicity Data Myelo” value [9] was 8.52E-09 and the “HT-29 TGI” value ([22]; HT-29) was 9.52E-09. For the same molecule, the GI50 ([22]; HT-29, read-out: HT-29 GI50) was 2.96 nM, the LC50 (concentration for 50% cell killing) ([22]; Homo sapiens, HT-29, 48 h, read-out: HT-29 LC50, HT-29) was 10.1 µM and the “IGROV-ET TGI” value [23] was 9.57E-08. The GI50 ([23]; read-out: IGROV-ET GI50) was 4.22 nM, the CC50 ([23]; read-out: IGROV-ET LC50) was 303 nM and the CC50 ([24]; Homo sapiens, 48 h, read-out: LOVO-DOX LC50, LOVO-DOX) was 10.1 µM. For the same molecule, the “LOVO-DOX TGI” value ([24]; LOVO-DOX) was 9.39E-08 and the GI50 ([24]; LOVO-DOX, read-out: LOVO-DOX GI50) was 31.3 nM.
